Experimental data published in article PMC4445981, “The glutamate transport inhibitor DL-Threo-β-Benzyloxyaspartic acid (DL-TBOA) differentially affects SN38- and oxaliplatin-induced death of drug-resistant colorectal cancer cells” (BMC Cancer, 2015).

How the values were obtained:
Format in all cases: cell-based, human
[1] = test system: cellular reduced glutathione (GSH); experiment: Cellular GSH level; conditions: parental HCT116 cells; 24 h; 0.8 μM SN38 or 20 μM oxaliplatin
Protocol: Fig. 4 Effect of glutamate transporter inhibition on cellular GSH levels. a Basal intracellular GSH levels were measured as described in Materials and Methods, and normalized to total protein in the samples. b-c Normalized basal GSH levels under control conditions, in HCT116 and LoVo parental and resistant cells after 24 h of treatment with 0.8 μM SN38 or 20 μM oxaliplatin, in absence or presence of DL-TBOA (350 μM) as shown. * p < 0.05 vs untreated control group (n = 5). One-way ANOVA followed by Dunnett post-test
Cells were seeded in 24-well plates (10^4 cells per well), treated the next day with chemotherapy and/or DL-TBOA and incubated for 24 h. Medium was removed and cells were washed twice with ice-cold PBS, which was removed and 500 μl ice-cold 1 % Sulfosalicylic acid was added per well. Cells were incubated on ice for at least 10 min. After centrifugation (1 min, 15,000 g), 10 μl lysate was used to determine total GSx content. To measure GSSG content, 130 μl sample was mixed with 55 μl 0.2 M Tris (pH 9) and 5 μl 2-Vinylpyridine. Tubes were vortexed carefully and incubated for at least 1 h at room temperature. 10 μl of this mix was mixed first with 90 μl of water in a 96-well plate and then with a reaction mix (0.1 M sodium phosphate buffer pH 7.5 containing 1 mM EDTA, 10 mM NADPH, 10 mM DTNB and 0.05 μl Glutathione reductase, 2U/μl). Measurements were taken every 30 s for 10 min in an ELISA plate reader (Thermo Scientific MultiScan FC) at 405 nm absorbance. GSH values were obtained by subtraction of GSSG values from GSx values.

PARP-1 cleavage = PARP-1 cleavage by Western blotting; conditions: HCT116 parental, oxaliplatin-resistant and SN38-resistant cells; 0.8 μM SN38, 24 h
Protocol: (§1) Cells were grown to a confluence of 60-80 % and treated with chemotherapy, siRNA- or plasmid transfection as indicated. Cells were washed once in PBS, lysed in lysis buffer (1 % SDS, 0.1 M Tris pH 7.5, and 1 mM Na3VO4), sonicated, and protein content determined (DC assay, BioRad). Lysates were mixed 2:1with NuPage LDS sample buffer (Invitrogen). SDS-PAGE was carried out in NOVEX chambers with NuPAGE 10 % Bis-Tris gels under reducing and denaturing conditions, using BenchMark protein ladder (Invitrogen), and 15 μg protein per lane. Proteins were transferred to PVDF membranes, which were Ponceau S stained, blocked for 1 h at 37 °C in 5 % nonfat dry milk in TBST (0.01 M Tris/HCl, 0.15 M NaCl, 0.1 % Tween 20, pH 7.4), incubated overnight at 4 °C with primary antibodies diluted in blocking buffer, washed in TBST, incubated with secondary antibodies for 1 h, washed in TBST, and developed using BCIP/NBT (KPL). Bands were scanned and quantified using UN-SCAN-IT (Silk Scientific).
Supplementary file 12885_2015_1405_MOESM3_ESM.tiff: Additional file 3: Figure S3. […] Equal amounts of protein per lane were separated by SDS-PAGE and the protein levels of p21, and PARP-1 (full-length and cleaved, the latter indicated by arrowheads) were determined by Western blotting. […] Bottom: Densitometric quantifications based on 3 independent experiments per condition. […]

[2] = test system: SLC1A1 localization in HCT116 cells; experiment: Immunofluorescence analysis of SLC1A1 subcellular localization; conditions: parental HCT116 cells; 48 h; 0.8 μM SN38 or 20 μM oxaliplatin
Protocol: Immunofluorescence analysis was carried out essentially as in [47]. Cells grown on glass coverslips were fixed in 2 % paraformaldehyde, washed in TBST, permeabilized for 5 min (0.5 % Triton X-100 in TBST), blocked for 30 min in 5 % BSA in TBST, incubated with SLC1A1 primary antibody in TBST + 1 % BSA overnight at 4 °C, washed in TBST, and with Rhodamine-phalloidin and AlexaFluor488 conjugated secondary antibody (1:600 in TBS + 1 % BSA) for 1 h, followed by washing in TBST, and mounting in N-propyl-galleate mounting medium (2 % w/v in PBS/glycerol). DAPI was added for 3 min following incubation with the secondary antibody. Cells were visualized using the 60X/1.35 NA objective of an Olympus Bx63 epifluorescence microscope. […] Overlays were carried out using Adobe Photoshop software. No other image adjustment was performed.

p21^WAF1/Cip (p21) = experiment: p21 protein level by Western blotting; conditions: 24 h
Protocol: as §1
Supplementary file 12885_2015_1405_MOESM3_ESM.tiff: Additional file 3: Figure S3. Effects of DL-TBOA on cell death and survival parameters after chemotherapy treatment of HCT116 cells. Parental and drug-resistant HCT116 cell lines seeded in 6-well dishes were exposed to SN38 (0.8 μM) or oxaliplatin (20 μM), alone or in combination with 350 μM DL-TBOA as indicated, for 24 h. Equal amounts of protein per lane were separated by SDS-PAGE and the protein levels of p21, and PARP-1 (full-length and cleaved, the latter indicated by arrowheads) were determined by Western blotting. Top: Representative Western blots, with p150 as loading control. Bottom: Densitometric quantifications based on 3 independent experiments per condition. Data are means with S.E.M. error bars of 3 independent experiments. *) p < 0.05, **) p < 0.01, ***) p < 0.001,****) p < 0.0001 compared to the control group without drug or TBOA treatment; #) p < 0.05 compared to controls without TBOA treatment. Two-way ANOVA with Tukey post-test.

[3] = test system: parental and drug-resistant HCT116 and LoVo cell lines; experiment: MTT viability assay, HCT116 and LoVo cell lines; conditions: Homo sapiens; parental HCT116 and LoVo; 48 h; 0.8 μM SN38 (highest dose tested); read-out: viable cells remaining
Protocol: Fig. 2 DL-TBOA augments SN38-induced death in SN38-resistant cells, but protects oxaliplatin-resistant cells from oxaliplatin-induced death. Parental and drug-resistant HCT116 and LoVo cell lines seeded in 96-well dishes were exposed to SN38 (0.1 or 0.8 μM) or oxaliplatin (0.8 or 20 μM), alone or in combination with 70 or 350 μM DL-TBOA as indicated, for 48 h. Viability was assessed by MTT assay. a-b Parental HCT116 cells, (c) SN38 resistant HCT116 cells, (d) Oxaliplatin-resistant HCT116 cells, (e-f) Parental LoVo cells, (g) SN38 resistant LoVo cells, (h) Oxaliplatin-resistant LoVo cells. Data are means with S.E.M. error bars of 3 independent experiments. *) p < 0.05, **) p < 0.01, ***) p < 0.001 compared to the control group without drug or TBOA treatment; #) p < 0.05 compared to controls without TBOA treatment. One-way ANOVA followed by Dunnett post-test
Cells were seeded at appropriate density (LoVo 10,000, and HCT116 5000 cells /100 μl) in growth medium in 96-well plates. Next day, cells were treated with inhibitors and/or chemotherapy in a total volume of 200 μl in growth medium and incubated for 48 h at 37 °C, 5 % CO2. The medium was replaced with 100 μl of 0.5 mg/ml 3-(4,5-dimethylthiazol-2-yl)-2,5-diphenyltetrazolium bromide (MTT) in growth medium. The reaction was stopped 1.5-2.5 h later by addition of 100 μl 20 % SDS in 0.02 M HCl, and incubation overnight to allow complete lysis of cells and formazan crystals. Absorbance was measured in an ELISA plate reader (Thermo Scientific MultiScan FC) at 550 nm. Data were background subtracted and % viability relative to controls calculated.

p53 = p53 protein level by Western blotting; conditions: 24 h
Protocol: Fig. 5 Effects of DL-TBOA on cell death and survival parameters after chemotherapy treatment. Parental and drug-resistant HCT116 (a) and LoVo (b) cell lines were exposed to SN38 (0.8 μM) or oxaliplatin (20 μM), alone or in combination with 350 μM DL-TBOA as indicated, for 24 h. Equal amounts of protein per lane were separated by SDS-PAGE and the protein level of p53 was determined by Western blotting. Top: Representative Western blots, with p150 as loading control. Bottom: Densitometric quantifications based on 3 independent experiments per condition. Data are means with S.E.M. error bars of 3 independent experiments. *) p < 0.05, **) p < 0.01, ***) p < 0.001,****) p < 0.0001 compared to the control group without drug or TBOA treatment; Two-way ANOVA with Tukey post-test
as §1

[4] = SN38-resistant HCT116 cells, 0.8 μM SN38 or 20 μM oxaliplatin
[5] = oxaliplatin-resistant HCT116 cells, 0.8 μM SN38
[6] = parental HCT116 cells, 0.8 μM SN38 or 20 μM oxaliplatin

Q: Which results are given for `CCc1c2c(nc3ccc(O)cc13)-c1cc3c(c(=O)n1C2)COC(=O)[C@]3(O)CC` [SN38, 7-ethyl-10-hydroxycamptothecin]?
A: effect on cellular GSH levels [1]: slightly increased GSH levels; PARP-1 cleavage (PARP-1 cleavage): induced by SN38 in parental and oxaliplatin-resistant, yet not in SN38-resistant, cells; SLC1A1 subcellular localization [2]: marked shift in SLC1A1 localization towards the perinuclear/nuclear region; p21 protein level (p21^WAF1/Cip (p21); [4]): modestly increased p21 expression; p21 protein level (p21^WAF1/Cip (p21); [5]): only SN38 induced p53 and p21 expression; p21 protein level (p21^WAF1/Cip (p21); [6]): markedly induced; viability at 0.8 µM [3]: ~20%; p53 protein level (p53; [4]): essentially no effect on p53 expression; p53 protein level (p53; [5]): only SN38 induced p53 and p21 expression; p53 protein level (p53; [6]): markedly induced
